Results: patent US8580839B2, “Photosensitizer formulations and their use” (Biolitec Pharma Marketing Ltd, priority 2005, dated 2013)

Assay: Fluorescence detection of m-THPC tissue accumulation in patients after intravenous injection
Type: in vivo
Conditions: for fluorescence found/# patients tested: 0.05 mg/kg
Experimental: Comparison of tissue accumulation of m-THPC in patients after administration of the standard m-THPC formulation (“m-THPC”) and a low concentration formulation with low dosage of m-THPC (“m-THPC-dl”).
In this example, the two formulations were studied and compared to show m-THPC uptake in patient tissue after administration. The standard formulation (“m-THPC”) contained the standard concentration of m-THPC for photodynamic therapy, which is 4 mg/ml. The second formulation (“m-THPC-dl”) is a low concentration formulation containing 0.8 mg/ml of m-THPC. Each formulation was prepared with a mixture of pure propylene glycol and pure ethanol (3:2, v/v) as the excipient. Each patient received a reduced dosage of 0.05 mg of m-THPC per kg of body weight.
After administration of the two different formulations, the fluorescence accumulation in patients was monitored and the large difference in the pharmacokinetics between the m-THPC and m-THPC-dl formulations was found.
Comparison of tissue accumulation of m-THPC in patients after administration of the standard m-THPC formulation (“m-THPC”) and a low concentration formulation when m-THPC is diluted with aqueous lipid containing solubilizing preparation Lipofundin®.
In this example, the two formulations were studied and compared to show m-THPC uptake in patient tissue after administration with […]. The standard formulation (“m-THPC”) contained the standard concentration of m-THPC for photodynamic therapy is 4 mg/ml. The second formulation (“m-THPC-Lipo”) is a low concentration formulation containing 0.08 mg/ml of m-THPC (dilution for 50 times, from standard level). It was prepared by the dilution of standard m-THPC solution with the concentration of 4 mg/ml by aqueous lipid containing solubilizing preparation. Lipofundin® MCT (10%, B. Braun Melsungen AG, Melsungen, Germany). Each patient received intravenously the low dosage of 0.05 mg of m-THPC per kg of body weight.
After administration of the two different formulations, the fluorescence accumulation in patients was monitored and a no difference in the pharmacokinetics between the m-THPC and m-THPC-Lipo formulations was found.

- patients with measurable fluorescence in the tumors (1 hour after drug injection): not detected in any patients
- patients with strong fluorescence in the tumors (3 hours after injection): about 30%
- fluorescence found/# patients tested (Intact skin, 15 min after injection): 0/11
- fluorescence found/# patients tested (Intact skin, 1 hour after injection): 0/11
- fluorescence found/# patients tested (Intact skin, 3 hours after injection): 2/11
- fluorescence found/# patients tested (Intact skin, 1 day after injection): 8/11
- fluorescence found/# patients tested (Intact skin, 2 days after injection): 9/11
- fluorescence found/# patients tested (Perifocal skin, 15 min after injection): 0/11
- fluorescence found/# patients tested (Perifocal skin, 1 hour after injection): 0/11
- fluorescence found/# patients tested (Perifocal skin, 3 hours after injection): 2/11
- fluorescence found/# patients tested (Perifocal skin, 1 day after injection): 10/11
- fluorescence found/# patients tested (Perifocal skin, 2 days after injection): All
- fluorescence found/# patients tested (Tumor, 15 min after injection): 0/11
- fluorescence found/# patients tested (Tumor, 1 hour after injection): 0/11
- fluorescence found/# patients tested (Tumor, 3 hours after injection): 4/11
- fluorescence found/# patients tested (Tumor, 1 day after injection): All
- fluorescence found/# patients tested (Tumor, 2 days after injection): All
Structure (SMILES): Oc1cccc(-c2c3nc(c(-c4cccc(O)c4)c4ccc([nH]4)c(-c4cccc(O)c4)c4nc(c(-c5cccc(O)c5)c5ccc2[nH]5)CC4)C=C3)c1 [m-THPC, Meta-tetra(hydroxyphenyl)chlorin]
- fluorescence in perifocal and intact skin (2 days post-injection): there were patients where fluorescence in perifocal and intact skin was not observed
